According to ChEMBL document CHEMBL2176903, “P2-substituted N-acylprolylpyrrolidine inhibitors of prolyl oligopeptidase: biochemical evaluation, binding mode determination, and assessment in a cellular model of synucleinopathy” (J Med Chem, 2012):
pIC50: −log10 of the molar value.

Molecular target: Dipeptidyl peptidase 2 (Homo sapiens, UniProt Q9UHL4)
Assay: Inhibition of human seminal plasma DPP2 assessed as pNA release from Lys-Ala-p-nitroanilide substrate pre-incubated with enzyme for 15 min prior to substrate addition by […]

| Compound | pIC50 |
| --- | --- |
| [N-]=[N+]=N[C@H]1C[C@@H](C(=O)N2CCCC2)N(C(=O)OCc2ccccc2)C1 | < 4.00 |
| O=C([C@@H]1CCCN1C(=O)OCc1ccccc1)N1CCCC1 | < 4.00 |
| C[Si](C)(C)c1cn([C@H]2C[C@@H](C(=O)N3CCCC3)N(C(=O)OCc3ccccc3)C2)nn1 | < 4.00 |
| O=C([C@@H]1C[C@H](n2cc(-c3ccc(F)cc3F)nn2)CN1C(=O)CCCc1ccccc1)N1CCCC1 | < 4.00 |

Second part, the compound after the results:

| pIC50 | Compound |
| --- | --- |
| < 4.00 | CC(C)(C)OC(=O)NCc1cn([C@@H]2C[C@@H](C(=O)N3CCCC3)N(C(=O)CCCc3ccccc3)C2)nn1 |
| < 4.00 | O=C([C@@H]1C[C@H](n2cc(C3CC3)nn2)CN1C(=O)CCCc1ccccc1)N1CCCC1 |
| < 4.00 | CC(C)(C)OC(=O)NCc1cn([C@H]2C[C@@H](C(=O)N3CCCC3)N(C(=O)CCCc3ccccc3)C2)nn1 |

Molecular target: Prolyl endopeptidase (Sus scrofa, UniProt P23687)
Sequence (P23687 whole entry): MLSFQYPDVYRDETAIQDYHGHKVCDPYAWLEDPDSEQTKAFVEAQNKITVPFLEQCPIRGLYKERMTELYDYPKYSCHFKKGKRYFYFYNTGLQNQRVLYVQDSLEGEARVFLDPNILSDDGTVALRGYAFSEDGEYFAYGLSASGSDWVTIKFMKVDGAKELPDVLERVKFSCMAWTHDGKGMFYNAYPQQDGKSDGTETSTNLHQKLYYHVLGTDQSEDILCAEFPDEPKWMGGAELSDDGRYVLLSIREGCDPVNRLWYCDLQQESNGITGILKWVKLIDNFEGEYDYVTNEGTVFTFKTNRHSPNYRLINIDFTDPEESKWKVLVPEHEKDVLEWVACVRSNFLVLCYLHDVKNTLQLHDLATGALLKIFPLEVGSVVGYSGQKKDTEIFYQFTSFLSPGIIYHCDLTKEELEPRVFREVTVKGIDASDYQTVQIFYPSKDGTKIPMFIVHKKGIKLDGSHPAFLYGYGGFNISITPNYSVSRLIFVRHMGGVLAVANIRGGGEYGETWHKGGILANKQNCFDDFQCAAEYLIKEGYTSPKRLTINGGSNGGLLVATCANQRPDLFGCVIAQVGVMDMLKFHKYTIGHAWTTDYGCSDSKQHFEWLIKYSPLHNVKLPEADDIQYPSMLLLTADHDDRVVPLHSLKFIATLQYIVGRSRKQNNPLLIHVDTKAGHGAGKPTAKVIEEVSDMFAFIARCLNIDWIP
Assay: Inhibition of pig PREP expressed in Escherichia coli using Z-Gly-Pro-p-nitroanilide substrate

| Compound | pIC50 |
| --- | --- |
| Cn1cnc(-c2cn([C@H]3C[C@@H](C(=O)N4CCCC4)N(C(=O)CCCc4ccccc4)C3)nn2)c1 | 7.05 |
| [N-]=[N+]=N[C@H]1C[C@@H](C(=O)N2CCCC2)N(C(=O)OCc2ccccc2)C1 | 6.44 |
| C[Si](C)(C)c1cn([C@H]2C[C@@H](C(=O)N3CCCC3)N(C(=O)OCc3ccccc3)C2)nn1 | 6.02 |
| O=C([C@@H]1C[C@H](n2cc(-c3ccc(F)cc3F)nn2)CN1C(=O)CCCc1ccccc1)N1CCCC1 | 7.62 |

The remaining lines, values ahead:

| pIC50 | Compound |
| --- | --- |
| 6.55 | CC(C)(C)OC(=O)NCc1cn([C@@H]2C[C@@H](C(=O)N3CCCC3)N(C(=O)CCCc3ccccc3)C2)nn1 |
| 7.41 | O=C([C@@H]1C[C@H](n2cc(C3CC3)nn2)CN1C(=O)CCCc1ccccc1)N1CCCC1 |
| 7.49 | CC(C)(C)OC(=O)NCc1cn([C@H]2C[C@@H](C(=O)N3CCCC3)N(C(=O)CCCc3ccccc3)C2)nn1 |

Molecular target: not listed separately
Assay: Inhibition of bovine testes DPP9 assessed as pNA release from Ala-Pro- p-nitroanilide substrate pre-incubated with enzyme for 15 min prior to substrate addition by […]
Design: species or system Bos taurus

| Compound | pIC50 |
| --- | --- |
| [N-]=[N+]=N[C@H]1C[C@@H](C(=O)N2CCCC2)N(C(=O)OCc2ccccc2)C1 | < 4.00 |
| O=C([C@@H]1CCCN1C(=O)OCc1ccccc1)N1CCCC1 | < 4.00 |
| C[Si](C)(C)c1cn([C@H]2C[C@@H](C(=O)N3CCCC3)N(C(=O)OCc3ccccc3)C2)nn1 | < 4.00 |
| O=C([C@@H]1C[C@H](n2cc(-c3ccc(F)cc3F)nn2)CN1C(=O)CCCc1ccccc1)N1CCCC1 | < 5.00 |

The remaining lines, values ahead:

| pIC50 | Compound |
| --- | --- |
| < 4.00 | CC(C)(C)OC(=O)NCc1cn([C@@H]2C[C@@H](C(=O)N3CCCC3)N(C(=O)CCCc3ccccc3)C2)nn1 |
| < 5.00 | O=C([C@@H]1C[C@H](n2cc(C3CC3)nn2)CN1C(=O)CCCc1ccccc1)N1CCCC1 |
| < 4.00 | CC(C)(C)OC(=O)NCc1cn([C@H]2C[C@@H](C(=O)N3CCCC3)N(C(=O)CCCc3ccccc3)C2)nn1 |

Molecular target: T1, Prolyl endopeptidase FAP (Mus musculus, UniProt P97321)
T1 sequence (P97321 whole entry): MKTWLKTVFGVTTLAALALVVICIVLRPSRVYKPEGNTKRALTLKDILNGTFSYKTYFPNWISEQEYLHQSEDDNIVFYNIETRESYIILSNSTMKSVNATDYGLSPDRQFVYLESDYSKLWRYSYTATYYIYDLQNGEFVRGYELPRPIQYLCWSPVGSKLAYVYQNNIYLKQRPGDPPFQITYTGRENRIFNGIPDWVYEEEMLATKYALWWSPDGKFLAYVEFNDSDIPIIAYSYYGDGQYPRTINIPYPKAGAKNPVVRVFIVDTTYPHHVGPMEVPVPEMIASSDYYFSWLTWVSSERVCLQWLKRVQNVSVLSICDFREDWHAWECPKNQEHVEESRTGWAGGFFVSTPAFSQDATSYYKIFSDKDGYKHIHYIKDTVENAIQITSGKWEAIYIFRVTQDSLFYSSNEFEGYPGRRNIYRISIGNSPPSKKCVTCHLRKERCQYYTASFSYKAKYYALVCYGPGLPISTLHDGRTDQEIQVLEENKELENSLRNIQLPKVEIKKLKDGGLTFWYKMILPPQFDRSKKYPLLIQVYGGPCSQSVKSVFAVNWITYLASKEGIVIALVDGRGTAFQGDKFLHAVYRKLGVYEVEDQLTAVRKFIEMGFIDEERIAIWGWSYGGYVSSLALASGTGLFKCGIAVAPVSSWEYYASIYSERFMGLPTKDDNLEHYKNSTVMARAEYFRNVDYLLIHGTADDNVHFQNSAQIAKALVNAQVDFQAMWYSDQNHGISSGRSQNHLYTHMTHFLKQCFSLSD
Assay: Inhibition of mouse recombinant FAP expressed in HEK293 cells assessed as pNA release from Ala-Pro-p-nitroanilide pre-incubated with enzyme for 15 mins prior to substrate addition by […]
Format: cell-based

| Compound | pIC50 |
| --- | --- |
| [N-]=[N+]=N[C@H]1C[C@@H](C(=O)N2CCCC2)N(C(=O)OCc2ccccc2)C1 | < 4.00 |
| O=C([C@@H]1CCCN1C(=O)OCc1ccccc1)N1CCCC1 | < 4.00 |
| C[Si](C)(C)c1cn([C@H]2C[C@@H](C(=O)N3CCCC3)N(C(=O)OCc3ccccc3)C2)nn1 | < 4.00 |
| O=C([C@@H]1C[C@H](n2cc(-c3ccc(F)cc3F)nn2)CN1C(=O)CCCc1ccccc1)N1CCCC1 | < 5.30 |

Continued, values first:

| pIC50 | Compound |
| --- | --- |
| < 4.00 | CC(C)(C)OC(=O)NCc1cn([C@@H]2C[C@@H](C(=O)N3CCCC3)N(C(=O)CCCc3ccccc3)C2)nn1 |
| < 4.00 | O=C([C@@H]1C[C@H](n2cc(C3CC3)nn2)CN1C(=O)CCCc1ccccc1)N1CCCC1 |
| < 4.00 | CC(C)(C)OC(=O)NCc1cn([C@H]2C[C@@H](C(=O)N3CCCC3)N(C(=O)CCCc3ccccc3)C2)nn1 |

Molecular target: Dipeptidyl peptidase 4 (Homo sapiens, UniProt P27487)
Sequence (P27487 whole entry): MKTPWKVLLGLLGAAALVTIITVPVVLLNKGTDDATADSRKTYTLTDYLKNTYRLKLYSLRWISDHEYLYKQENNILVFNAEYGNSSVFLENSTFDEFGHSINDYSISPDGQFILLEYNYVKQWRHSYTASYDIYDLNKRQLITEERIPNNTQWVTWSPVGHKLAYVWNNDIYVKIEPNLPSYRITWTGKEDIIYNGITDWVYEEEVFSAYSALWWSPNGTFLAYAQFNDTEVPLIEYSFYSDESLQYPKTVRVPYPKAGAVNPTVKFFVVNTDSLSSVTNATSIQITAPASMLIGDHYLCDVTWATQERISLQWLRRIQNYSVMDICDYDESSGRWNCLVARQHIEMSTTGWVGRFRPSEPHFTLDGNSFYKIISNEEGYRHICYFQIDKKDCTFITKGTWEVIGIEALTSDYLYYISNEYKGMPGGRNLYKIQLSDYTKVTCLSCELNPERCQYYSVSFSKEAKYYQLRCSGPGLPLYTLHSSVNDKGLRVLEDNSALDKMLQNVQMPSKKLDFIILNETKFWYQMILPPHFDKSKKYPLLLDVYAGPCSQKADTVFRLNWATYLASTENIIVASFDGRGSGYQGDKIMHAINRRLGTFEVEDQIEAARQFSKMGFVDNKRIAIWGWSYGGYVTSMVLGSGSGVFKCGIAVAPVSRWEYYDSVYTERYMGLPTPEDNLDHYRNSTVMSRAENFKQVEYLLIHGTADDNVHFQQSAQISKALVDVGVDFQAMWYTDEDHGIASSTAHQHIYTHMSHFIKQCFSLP
Assay: Inhibition of human seminal plasma DPP4 assessed as pNA release from Gly-Pro-p-nitroanilide substrate pre-incubated with enzyme for 15 min prior to substrate addition by […]

| Compound | pIC50 |
| --- | --- |
| [N-]=[N+]=N[C@H]1C[C@@H](C(=O)N2CCCC2)N(C(=O)OCc2ccccc2)C1 | < 4.00 |
| O=C([C@@H]1CCCN1C(=O)OCc1ccccc1)N1CCCC1 | < 4.00 |
| C[Si](C)(C)c1cn([C@H]2C[C@@H](C(=O)N3CCCC3)N(C(=O)OCc3ccccc3)C2)nn1 | < 4.00 |
| O=C([C@@H]1C[C@H](n2cc(-c3ccc(F)cc3F)nn2)CN1C(=O)CCCc1ccccc1)N1CCCC1 | < 4.00 |

Other lines, results leading:

| pIC50 | Compound |
| --- | --- |
| < 4.00 | CC(C)(C)OC(=O)NCc1cn([C@@H]2C[C@@H](C(=O)N3CCCC3)N(C(=O)CCCc3ccccc3)C2)nn1 |
| < 4.00 | O=C([C@@H]1C[C@H](n2cc(C3CC3)nn2)CN1C(=O)CCCc1ccccc1)N1CCCC1 |
| < 4.00 | CC(C)(C)OC(=O)NCc1cn([C@H]2C[C@@H](C(=O)N3CCCC3)N(C(=O)CCCc3ccccc3)C2)nn1 |
